The values that follow are results of earlier work, collected in patent US8420699B1, “Composition and methods of treatment using deionized and ozonated solution” (priority 2002, dated 2013).

As to `O=[O+][O-]` [ozone], the half-life of ozone (at 68° F.) is 45 min. Further, the “concentrated effectiveness relative to initial value” (in two hours after generation) is 16 % of its initial value.
